Non-standard residues stand in square brackets, D forms with d. Residues, ends and D or L forms follow the SMILES beside them. Tle = CC(C)(C)[C@H](N)C(=O)O
Experiments:
NTS1 [1] = target: T1, NTS1 (Homo sapiens, UniProt P30989); test: Binding to HT29 cell membranes (competition with 125I-Tyr3-neurotensin); details: 50 pM 125I-Tyr3-neurotensin, 45 min room temperature
T1 construct: endogenous in cells; host or cells: HT29 cells (membranes or living cells)
Protocol: Membrane bound activity was recovered by filtration onto Whatman GF/B filters presoaked for 1 hour with polyethyleneimine (0.2% in water) and rinsed twice with buffer. Non-specific binding was evaluated in the presence of 10^-6 M neurotensin. Radioactivity was counted and results were analyzed with GraphPad Prism® (GraphPad Software, Inc. San Diego, Calif.). All experiments were performed three times in triplicate. Ki values for binding to HT29 cell membranes and IC50 for binding to cells were used to evaluate affinity (Table 2).

NTS1 [2] = target: T1, NTS1; test: Binding to living HT29 cells (competition); details: 60 min 37° C., tracer [Lys6(DTPA(111In))]-NT, the labeled DTPA(111In)-peptide itself, or 125I-NT (DOTA-peptides)
Protocol: After washing the wells twice with ice-cold DMEM 0.2% BSA, cells were lysed in 500 μL 0.1N NaOH and radioactivity was counted. Non-specific binding was evaluated in the presence of 10^-6 M neurotensin. Competition curves were analyzed with the “Equilibrium Expert” software (Raguin et al., Anal. Biochem. (2002) 310, 1-14). All experiments were performed three times in triplicate. Ki values for binding to HT29 cell membranes and IC50 for binding to cells were used to evaluate affinity (Table 2).

T1 sequence (P30989 whole entry): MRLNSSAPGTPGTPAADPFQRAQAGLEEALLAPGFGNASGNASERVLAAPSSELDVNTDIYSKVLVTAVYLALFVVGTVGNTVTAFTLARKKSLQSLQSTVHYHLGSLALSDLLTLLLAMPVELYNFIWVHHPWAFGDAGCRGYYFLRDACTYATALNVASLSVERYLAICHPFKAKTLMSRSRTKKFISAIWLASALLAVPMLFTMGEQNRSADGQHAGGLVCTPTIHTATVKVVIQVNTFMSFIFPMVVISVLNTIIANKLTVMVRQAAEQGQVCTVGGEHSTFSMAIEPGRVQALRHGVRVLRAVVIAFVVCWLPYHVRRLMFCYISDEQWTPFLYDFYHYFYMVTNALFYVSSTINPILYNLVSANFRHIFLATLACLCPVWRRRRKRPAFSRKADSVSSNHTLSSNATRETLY

| SMILES | Ki (NTS1 [1]) | IC50 (NTS1 [2]) |
| --- | --- | --- |
| CC[C@H](C)[C@H](NC(=O)[C@H](Cc1ccc(O)cc1)NC(=O)[C@@H]1CCCN1C(=O)[C@H](CCCNC(=N)N)NC(=O)[C@H](CCCNC(=N)N)NC(=O)[C@@H]1CCCN1C(=O)[C@H](CCCCN)NC(C)=O)C(=O)N[C@@H](CC(C)C)C(=O)O [NT-20.1] | 0.072 ± 0.019 nM | 0.82 ± 0.08 nM |
| CC(=O)N[C@@H](CCCCN)C(=O)N1CCC[C@H]1C(=O)N[C@@H](CCCNC(=N)N)C(=O)N[C@@H](CCCNC(=N)N)C(=O)N1CCC[C@H]1C(=O)N[C@@H](Cc1ccc(O)cc1)C(=O)N[C@H](C(=O)N[C@@H](CC(C)C)C(=O)O)C(C)(C)C [NT-20.2, Ac-Lys-Pro-Arg-Arg-Pro-Tyr-Tle-Leu-OH] (Ac-KPRRPY[Tle]L-OH) | 0.26 ± 0.07 nM | 2.46 ± 0.79 nM |
